Source: patent publication US20030217372A1, “Methods of using alpha 1b-adrenergic receptors” (priority 2002, published 2003)

How the values were obtained:
Format in all cases: in vivo
WT and α1b-AR KO mice [1] = assay: Locomotor sensitization induced by repeated drug administration
Protocol: Animals spent 90 minutes in the experimental apparatus, received a saline injection and were replaced in the apparatus for 60 minutes. […] Four similar sessions took place every other day. The sixth session took place after a 10-day withdrawal. Locomotor responses measured during the first hour following each injection are presented in function of the number of injections and slope values. N=6 to 15 animals per group.
N=6 to 12 animals per group. […] FIG. 6B represents the time course of the locomotor responses measured every 5 minutes.
(§1) Mice were introduced in a circular corridor (4.5 cm width, 17 cm external diameter) crossed by four infrared beams (1.5 cm above the base) placed at every 90° (Imetronic, Pessac, France). The locomotor activity was counted when animals interrupted two successive beams and, thus, had traveled ¼ of the circular corridor. In each session, the spontaneous activity was recorded for 90 minutes, before mice received either saline or drugs. Their activity was recorded for an additional 60 minutes or 120 minutes period. The first session was a session of habituation to the experimental procedure during which animals received saline (˜3 ml/kg, i.p.). The locomotor response to a drug administration was measured on the following day. Tests were performed between 12:00 and 6:00 p.m. in stable conditions of temperature and humidity.
Data were analyzed with Student's t-test or analysis of variance. For behavioral sensitization experiments, correlation between the number of drug injections and the amplitude of the locomotor responses was analyzed with linear regression and the influence of genotype on this correlation with an analysis of covariance. Genotype and prazosin treatments were between-subjects factors. […] Differences were considered significant when p<0.05.
The rate of sensitization was evaluated by determining the slope of the “number of injections/response” curve (FIG. 5).

WT and α1bAR-KO mice [2] = assay: Microdialysis: extracellular DA levels in the nucleus accumbens after systemic D-amphetamine
Protocol: Mice were anaesthetised with sodium pentobarbital (60 mg/kg; Sanofi Santé Animale, France) and placed in a stereotaxic frame (Kopf instruments). The head was positioned by means of a mouse nose clamp adaptator (Kopf model 922) supplemented by rat ear bars placed lightly in the external auditory meatus. A unilateral permanent cannula (CMA/7 guide cannula, Microdialysis AB, Sweden) was implanted into the nucleus accumbens and was secured on the skull with screw and dental cement. The coordinates for the guide cannula tip were antero-posterior (AP): +1.3 relative to bregma, medio-lateral (ML): +0.8, and dorso-ventral (DV): −2,4 mm from dura (Paxinos and Franklin, The mouse brain in stereotaxic coordinates, Academic Press 2001).
The day of the experiment, the microdialysis probe was inserted (CMA/7, Membrane length 2 mm and diameter 0.24 mm, cut-off: 6000 Da, Microdialysis AB, Sweden, for mice or CMA/11 with identical probe characteristics for rats). Artificial CSF (in mM: NaCl: 147; KCl: 3.5; CaCl2: 1; MgCl2: 1.2; NaH2PO4: 1; NaHCO3: 25, pH=7.6) was perfused with a CMA100 microinjection pump through the probe at a rate of 1 μl/min (2 μl/min for rats) via FEP catheter (internal diameter 0.12 mm for mice) or polyethylene catheter (internal diameter 0.3 mm for rats) connected to a fluid swivel. Adequate steady state of DA levels in perfusate samples was reached 2 hours and 20 minutes after probe insertion for mice and rats, and samples were collected in 300 μl vials placed into a refrigerated computer-controlled fraction collector (CMA/170). Samples (20 μl every 20-minutes for mice and 10 μl every 5 minutes for rats) were collected during 100 minutes and 30 minutes for mice and rats, respectively, to determine basal extracellular DA values.
Dialysate samples were completed to 30 μl with the mobile phase and placed into a refrigerated automatic injector (Triathlon, Spark Holland, Emmen, The Netherlands). Twenty five μl of the sample were injected every 15 minutes through a rheodyne valve in the mobile phase circuit. High-performance liquid chromatography was performed with a reverse-phase column (80×4.6 mm, […] particle size, HR-80, ESA INC., Chelmsford, Mass.). Mobile phase (NaH2PO4 75 mM, EDTA 20 μM, octane sulfonic acid 2.75 mM, triethylamine 0.7 mM, acetonitrile 6%, methanol 6%, and pH 5.2) was delivered at 0.7 ml/min by an ESA-580 pump. Electrochemical detection was performed with an ESA coulometric detector (Coulochem II 5100A, with a 5014B analytical cell; Eurosep, Cergy, France). […]
(§2) Results presented are means±S.E.M of data obtained with 5 to 9 animals. […] Data from microdialysis experiments were expressed as a percentage of the respective mean basal value to compensate for inter-subject differences. […]

WT and α1b-AR KO mice [3] = assay: Locomotor activity in circular corridor after acute drug injection; conditions: for locomotor activity: i.p., different doses
Protocol: FIG. 2 is a series of dose response graphs that depicts the results of locomotor response to novelty, saline, scopolamine and chloro-APB experiments in WT and α1b-AR KO mice. […] Animals were placed in the experimental apparatus for 90 minutes, received a saline injection and were replaced in the apparatus for 60 minutes. On the following day, animals were placed in the experimental apparatus for 90 minutes, they received an intraperitoneal injection of either saline or scopolamine (1 mg/kg) and their locomotor response was measured every 5 minutes for 60 minutes. FIG. 2D represents the results of locomotor response to chloro-APB; animals were placed in the experimental apparatus for 90 minutes, received a saline injection and were replaced in the apparatus for 60 minutes. On the following days, animals were placed in the experimental apparatus for 90 minutes, they received an intraperitoneal injection of chioro-APB and their locomotor response was measured every 5 minutes for 60 minutes. Several doses of chloro-APB were tested on consecutive days in a random order.
Independent groups of animals were used for each treatment to avoid eventual behavioral sensitization (N=6-16 per group).
as §1

WT and α1bAR-KO mice [4] = assay: Locomotor activity after systemic D-amphetamine during microdialysis experiments; conditions: 120 minutes after injection
Protocol: as §1
Results presented are means±S.E.M of data obtained with 5 to 9 animals. Statistical analysis was performed using Graph Pad Prism 3.0 software, (San Diego, Calif.). Data from microdialysis experiments were expressed as a percentage of the respective mean basal value to compensate for inter-subject differences. […] LogEC50's were compared after fitting curves with a Student's t-test. Pharmacological treatments correspond to independent groups of animals. Significant differences were set at p<0.05.

Sprague-Dawley rats = assay: Local perfusion (reverse dialysis) of D-amphetamine in the nucleus accumbens, rats; conditions: read-out: EC50 of DA release (extracellular DA levels)
Protocol: Extracellular DA levels are expressed in percent of basal DA values (3.50±0.021 and 4.71±0.015 pg DA per 20 minutes for mice and rats, respectively).
Rats were anesthetised with sodium pentobarbital (60 mg/kg; Sanofi Santé Animale, France). A unilateral permanent cannula (CMA/11 guide cannula, Microdialysis AB, Sweden) was implanted into the nucleus accumbens. The coordinates for the guide cannula tip were antero-posterior (AP): +1.7 relative to bregma, medio-lateral (ML): +1.1, and dorso-ventral (DV): −5.7 mm from dura (Paxinos and Watson, Ann. Rev. Pharmacol. Toxicol. 32:63(−77, 1986). After surgery, animals were placed in individual plastic cages and allowed to recover for at least 4 days.
The day of the experiment, the microdialysis probe was inserted (CMA/7, Membrane length 2 mm and diameter 0.24 mm, cut-off: 6000 Da, Microdialysis AB, Sweden, for mice or CMA/11 with identical probe characteristics for rats). […]
as §2

C57BL6/J mice = assay: Local perfusion (reverse dialysis) of D-amphetamine in the nucleus accumbens, mice
Protocol: Dialysate samples were completed to 30 μl with the mobile phase and placed into a refrigerated automatic injector (Triathlon, Spark Holland, Emmen, The Netherlands). Twenty five μl of the sample were injected every 15 minutes through a rheodyne valve in the mobile phase circuit. High-performance liquid chromatography was performed with a reverse-phase column (80×4.6 mm, 3 μM particle size, HR-80, ESA INC., Chelmsford, Mass.). Mobile phase (NaH2PO4 75 mM, EDTA 20 μM, octane sulfonic acid 2.75 mM, triethylamine 0.7 mM, acetonitrile 6%, methanol 6%, and pH 5.2) was delivered at 0.7 ml/min by an ESA-580 pump. […]

[5] = α1bAR-KO mice, D-amphetamine 3 mg/kg

C[C@H](N)Cc1ccccc1.C[C@H](N)Cc1ccccc1.O=S(=O)(O)O [D-amphetamine, D-amphetamine sulfate] was tested, and the “rate of sensitization: slope of the number of injections/response curve” value (WT and α1b-AR KO mice [1]; WT mice, D-amphetamine 1 mg/kg) was 179.8±69.1, the “rate of sensitization: slope of the number of injections/response curve” value (WT and α1b-AR KO mice [1]; WT mice, D-amphetamine 2 mg/kg) was 265+71 and the “rate of sensitization: slope of the number of injections/response curve” value (WT and α1b-AR KO mice [1]; α1b-AR KO mice, D-amphetamine 1 mg/kg) was 33.4±17.7. For the same compound, the “rate of sensitization: slope of the number of injections/response curve” value (WT and α1b-AR KO mice [1]; α1b-AR KO mice, D-amphetamine 2 mg/kg) was 104.4±31, the “extracellular DA levels in the nucleus accumbens” value (WT and α1bAR-KO mice [2]; WT mice, D-amphetamine 3 mg/kg i.p.) was “enhanced extracellular DA levels” and the “extracellular DA levels in the nucleus accumbens” value (WT and α1bAR-KO mice [2]; WT mice, D-amphetamine 6 mg/kg i.p.) was “enhanced extracellular DA levels”. The “extracellular DA levels in the nucleus accumbens” value (WT and α1bAR-KO mice [2]; [5]) was “did not modify basal extracellular DA levels”, the “mean increase in extracellular DA levels in the nucleus accumbens” value (WT and α1bAR-KO mice [2]; α1bAR-KO mice, D-amphetamine 6 mg/kg, vs basal) was “+25%” and the “amplitude of locomotor response, α1b-AR KO vs WT mice” value (WT and α1b-AR KO mice [3]; D-amphetamine 2 and 3 mg/kg, cocaine and morphine independent of dose) was “significantly lower”. For the same compound, the locomotor activity (WT and α1b-AR KO mice [3]; WT mice) was “dose-dependent stimulation of locomotor activity”, the locomotor activity (WT and α1b-AR KO mice [3]; α1b-AR KO mice) was “also increased locomotor activity” and the locomotor hyperactivity (WT and α1bAR-KO mice [4]; WT mice, D-amphetamine 3 mg/kg) was 1352±389. For the same compound, the locomotor hyperactivity (WT and α1bAR-KO mice [4]; WT mice, D-amphetamine 6 mg/kg) was 2758±199, the locomotor hyperactivity (WT and α1bAR-KO mice [4]; [5]) was 219±62 and the locomotor hyperactivity (WT and α1bAR-KO mice [4]; α1bAR-KO mice, D-amphetamine 6 mg/kg) was 734±184. The EC50 (Sprague-Dawley rats) was 11.8 ± 1.3 µM, the “DA release in WT mice lower than previously found in rats” value (C57BL6/J mice; 3 μM D-amphetamine, local perfusion in nucleus accumbens, WT mice vs rats (Darracq et al.)) was “more than 5 fold” and the EC50 (C57BL6/J mice; C57BL6/J mice, local perfusion in nucleus accumbens, read-out: EC50 of DA release (extracellular DA levels)) was 15.6 ± 1.1 µM. The “locomotor hyperactivity on local perfusion” value (C57BL6/J mice; mice nucleus accumbens, up to 100 μM) was “did not induce any locomotor hyperactivity”.
